Ends that are not written are not given here.

We go through nine substances from US20230113747A1, “IMMUNOGENIC PEPTIDES WITH AN OXIDOREDUCTASE MOTIF COMPRISING A MODIFIED CYSTEINE” (priority 2019, published 2023).

The subject of one assay is two peptides with a FITC label covalently attached to each other via a disulfide bridge. The assay is described as follows: Reductase activity of the peptides, fluorescent assay (Tomazzolli et al.).
Conditions: not given
It is filed as biochemical.
Turning to “N-Acetyl-CPYCVQYIKANSKFIGITEL [Peptide 7]”, the oxidoreductase activity entry is given as “higher oxidoreductase activity than the control peptide”.

The assay is the same for the next values; noted with them: compared with the control peptide without modified cysteine; DTT = 100% reducing activity, water = 0%.
Take “GW YRSPFSRVV HLYR CPY-C—NH-ethyl (GWYRSPFSRVVHLYRCPYC-NHEt; cysteine pairing not given here) [Peptide 30]”: the oxidoreductase activity entry is “slightly higher oxidoreductase activity than the control peptide”.
Same read-out and setting: next, “GWYRSPFSRVVHLYRCPYC-NH-methyl (GWYRSPFSRVVHLYRCPYC-NHMe; cysteine pairing not given here) [Peptide 29]”: “slightly higher oxidoreductase activity than the control peptide”.
For “N-Acetyl-CPYCSLQPLALEGSLQKRG (Ac-CPYCSLQPLALEGSLQKRG; not fully specified (C-terminus); printed as N-Acetyl-CPYCSLQPLALEGSLQKRG; cysteine pairing not given here) [Peptide 2]”, the oxidoreductase activity entry is on record as “higher oxidoreductase activity than the control peptide”.
On the same count and under the same terms, the result for “N-acetyl C-HGC GW YRSPFSRVV HLYR —NH2 [Peptide 27]” reads “higher activity than the control peptide”; that for “N-acetyl C-PYC GW YRSPFSRVV HLYR —NH2 [Peptide 22]”, “higher oxidoreductase activity than the control peptide”; that for “N-ethyl C-PYC GW YRSPFSRVV HLYR —NH2 [Peptide 24]”, “no oxidoreductase activity”.
As for “N-methyl C-PYC GW YRSPFSRVV HLYR —NH2 [Peptide 23]”, the oxidoreductase activity entry is on record as “equivalent activity as compared to the control peptide”.
On the same count and under the same terms, the result for “N-propionyl C-PYC GW YRSPFSRVV HLYR —NH2 [Peptide 25]” reads “higher oxidoreductase activity than the control peptide”.
